Molecules are shown by their SMILES.

The target of one series is T1, NMDA receptor (Rattus norvegicus, UniProt P35439).
T1 construct: treated rat SPM that had been extensively washed; from tissue; host or cells: rat synaptic plasma membranes, Triton-treated and extensively washed
The series can be described thus: Modulation of [3H]TCP binding, Triton-treated, extensively washed rat SPM (functional analysis, agonist/antagonist character). It is filed as biochemical. The note with it: 1 h, 5.0 nM [3H]TCP, 25° C., 60 min, pH 7.4, % of maximal glycine stimulation, read-out: AG/ANTAG [3H]TCP % STIM. Here is the method:
(§1) [^3 H]Glycine binding was performed using Triton ×-100 washed synaptic plasma membranes (SPM) prepared from rat forebrain (30-45 day old, male Sprague Dawley; Sasco, St. Charles Mo.). The assay was initiated by the addition of 0.2-0.4 mg of SPM to an incubation containing 10 nM [^3 H]glycine (43.5 Ci/mmole; New England Nuclear, Boston Mass.), and various concentrations of the appropriate test compounds in a total volume of 1 ml, with all additions made in […] Tris/acetate, pH 7.4. Following a 10 min incubation at 2° C. the bound radioactivity was separated from the free by either centrifugation (12000 g for 25 min at 4° C.) or vacuum filtration through Whatman GF/B filters using a Brandel MB-18 Harvester. The Kd and Bmax values for [^3 H]glycine were similar using either separation technique. The radioactivity associated with the SPM was quantitated using liquid scintillation spectrometry. Ki values for the inhibition of [ ^3 H]glycine binding were determined using logit-log analysis, with nonspecific binding determined using 100 μM glycine. Modulation of [^3 H]TCP binding was performed using Triton ×-100 (0.04% v/v) treated rat SPM that had been extensively washed. Assay incubations were at 25° C. for 60 min and contained 5.0 nM [^3 H]TCP, and various concentrations of the test compound in 5 mM Tris/HCl, pH 7.4. The assay was stopped by rapid filtration, using a Brandel MB-48 Harvester, thru Whatman GF/B filters treated with 0.05% polyethylenimine and the samples washed four times with 2.0 mls cold buffer. Radioactivity associated with the filter was determined by liquid scintillation spectrometry as described above. Nonspecific binding was defined using 60 μM PCP.
*The stimulation of [^3 H]TCP binding (% STIM) was expressed as a […]

In series [1] the target is T2, strychnine-insensitive Glycine receptor (Rattus norvegicus, UniProt P35439).
T2 construct: synaptic plasma membranes (SPM) prepared from rat forebrain; from tissue; host or cells: rat forebrain synaptic plasma membranes, male Sprague Dawley, 30-45 days old (animals from Sasco, St. Charles Mo.)
The series can be described thus: [3H]Glycine binding inhibition, Triton-washed rat forebrain synaptic plasma membranes (SPM). The note with it: inhibition of 10 nM [3H]glycine binding, pH 7.4, 10 min at 2° C., nonspecific: 100 μM glycine, read-out: AFFINITY [3H]GLYCINE (Ki). The method, then: as §1

Series [2] concerns bacterial methionine-γ-lyase. Conditions: M. Johnson et al., Biochemistry, 20, 4325-4333 (1981); cited from earlier work.
The subject of series [3] is L-aspartate aminotransferase enzyme. Conditions: R. R. Rando, Nature, 250, 587-588 (1974); cited from earlier work.
In series [4] the test system is strychnine-insensitive glycine receptor. Conditions: structure-activity relationships, literature; cited from earlier work.
For a further series, the system named is neurons. Conditions: J. W. Olney (1969); J. W. Olney et al. (1971); cited from earlier work.
The next series has as its system human subjects. The note with it: B. Saletu et al (1986); cited from earlier work.
The conditions of series [5]: following milacemide administration; cited from earlier work.

What is called Ki is a measure of affinity in units of concentration, obtained from inhibition or displacement. Consider `C/C=C/[C@H](N)C(=O)O` (stereo in doubt) [Compound 1, trans-L-2-amino-pent-3-enoic acid], for which, on NMDA receptor (CONC 40 (μ)), the Emax at 40 µM came to 51%. Also, the inhibition constant (Ki) in series [1] came out at 7.2 µM. Moreover, the “inhibition of bacterial methionine-γ-lyase” value in series [2] was “inhibition of bacterial methionine-γ-lyase”.

Turning to `C/C=C/[C@@H](N)C(=O)O` (stereo in doubt) [Compound 2, trans-D-2-amino-pent-3-enoic acid], the inhibitory constant (Ki) in series [1] was determined as 4.8 µM.

In the case of `CCC/C=C/[C@H](N)C(=O)O` (stereo in doubt) [Compound 3, trans-L-2-amino-hept-3-enoic acid], the Emax at 12 µM at NMDA receptor (CONC 12 (μ)) is 66%. In addition, in series [1], the Ki amounted to 4.9 µM.

For `CCC/C=C/[C@@H](N)C(=O)O` (stereo in doubt) [Compound 4, trans-D-2-amino-hept-3-enoic acid], in series [1], the Ki was found to be 1.8 µM.

Take `CCCCCC/C=C/[C@H](N)C(=O)O` (stereo in doubt) [Compound 5, trans-L-2-amino-dec-3-enoic acid]: the Emax at 30 µM at NMDA receptor (CONC 30 (μ)) was determined as 78%. For the same compound, the inhibitory constant (Ki) in series [1] is 0.95 µM.

As for `CCCCCC/C=C/[C@@H](N)C(=O)O` (stereo in doubt) [Compound 6, trans-D-2-amino-dec-3-enoic acid], the Emax at 100 µM on NMDA receptor (CONC 100 (μ)) was 48%. Moreover, the inhibitory constant (Ki) in series [1] is 55 µM.

Turning to `N[C@H](/C=C/CCO)C(=O)O` (stereo in doubt) [Compound 7, trans-D-2-amino--6-hydroxy-hex-3-enoic acid], the Emax at 6 µM at NMDA receptor (CONC 6 (μ)) worked out at 67%. The Ki in series [1] was found to be 0.28 µM.

On to `N[C@@H](/C=C/CCO)C(=O)O` (stereo in doubt) [Compound 8, trans-L-2-amino-6-hydroxy-hex-3-enoic acid], for which the Ki in series [1] was determined as 0.77 µM.

For the compound `CO/C=C/[C@H](N)C(=O)O` (stereo in doubt) [L-2-amino-4-methoxy-trans-3-butenoic acid], in series [3], the “inhibition of L-aspartate aminotransferase” value was “irreversible inhibitor”.

In the case of `C[C@@H](N)C(=O)O` [D-alanine], the “affinity at strychnine-insensitive glycine receptor (in words)” value in series [4] is on record as “highest affinities”.

Regarding `N[C@H](CO)C(=O)O` [D-serine], the “affinity at strychnine-insensitive glycine receptor (in words)” value in series [4] is reported as “highest affinities”.

For the compound `N[C@@H](CC(=O)O)C(=O)O` [aspartic, aspartic acid], the “excitatory and excitotoxic properties” value with neurons is “both excitatory and excitotoxic properties”.

On to `N[C@@H](CCC(=O)O)C(=O)O` [glutamic acid], for which the “excitatory and excitotoxic properties” value in the series with neurons was “both excitatory and excitotoxic properties”.

`CCCCCNCC(N)=O` [milacemide]: the memory-enhancing capabilities entry in the series on human subjects is listed as “memory-enhancing capabilities”. Moreover, in series [5], the brain glycine content entry is on record as “increase in brain glycine content”.

Source of the values: patent US5208260A, “Vinyl Glycine derivatives for memory and learning enhancement or treatment of a cognitive disorder” (priority 1990, dated 1993).
